Experimental findings from patent US12116343B2, “Inhibitors of APOL1 and methods of using same” (Vertex Pharmaceuticals Incorporated, priority 2020, dated 2024) are described below.

This assay addresses T1, APOL1 G1 Protein (Homo sapiens, UniProt O14791, I384M/S342G).
T1 sequence (O14791 28-398 S342G/I384M): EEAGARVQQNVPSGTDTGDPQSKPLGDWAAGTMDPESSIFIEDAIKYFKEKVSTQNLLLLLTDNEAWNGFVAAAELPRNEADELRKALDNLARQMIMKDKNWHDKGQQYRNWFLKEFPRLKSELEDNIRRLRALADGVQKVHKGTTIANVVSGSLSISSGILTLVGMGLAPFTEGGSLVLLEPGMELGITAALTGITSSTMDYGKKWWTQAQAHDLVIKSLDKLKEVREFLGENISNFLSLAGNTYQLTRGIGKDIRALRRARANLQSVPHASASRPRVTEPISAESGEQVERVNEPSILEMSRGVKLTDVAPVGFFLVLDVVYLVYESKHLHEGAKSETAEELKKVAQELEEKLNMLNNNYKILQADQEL
In words: Trypanosoma brucei brucei lysis assay using APOL1 recombinant protein (AlamarBlue viability). The assay is classed as cell-based. The following applies: Trypanosoma brucei brucei lysis, recombinant APOL1, AlamarBlue; read-out: Trypanosoma Assay (IC50). A digest of the protocol:
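Bloodstream-form T. b. brucei Lister 427 VSG 221, 120,000 parasites/well in phenol red-free, FBS-free medium, lysed by recombinant APOL1 G1 with compound (10-point dose response, 0.1% DMSO final). Viability read by AlamarBlue fluorescence against a parasite standard curve.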

On to `O=C(NCC1CCOCC1)[C@H]1C[C@H](c2c(-c3ccc(F)cc3)[nH]c3c(F)cc(F)cc32)C1` [Compound 42], for which the IC50 was more than 1000 nM.
For `O=C(NCCO)[C@H]1C[C@H](c2c(-c3ccc(F)cc3)[nH]c3c(F)cc(F)cc32)C1` [Compound 46, 3-[5,7-difluoro-2-(4-fluorophenyl)-1H-indol-3-yl]-N-(2-hydroxyethyl)cyclobutanecarboxamide] the value was less than 250 nM; for `O=C(NC(CO)CF)[C@H]1C[C@H](c2c(-c3ccc(F)cc3)[nH]c3c(F)cc(F)cc32)C1` (stereo partly shown) [Compound 78], less than 250 nM; for `O=C(NC1(CO)CC1)[C@H]1C[C@H](c2c(-c3ccc(F)cc3)[nH]c3c(F)cc(F)cc32)C1` [Compound 47], less than 250 nM.
As for `O=C1CC(NC(=O)[C@H]2C[C@H](c3c(-c4ccc(F)cc4)[nH]c4c(F)cc(F)cc43)C2)CN1` (mixture of isomers) [Compound 44], the IC50 is more than 1000 nM.
For the compound `CN1CC(CNC(=O)[C@H]2C[C@H](c3c(-c4ccc(F)cc4)[nH]c4c(F)cc(F)cc43)C2)CC1=O` (stereo partly shown) [Compound 70], the IC50 is more than 1000 nM.
For the compound `CN(C(=O)[C@H]1C[C@H](c2c(-c3ccc(F)cc3)[nH]c3c(F)cc(F)cc32)C1)C1(CO)CC1` [Compound 58], the IC50 fell in the range of 250 to 1000 nM.
As to `O=C([C@H]1C[C@H](c2c(-c3ccc(F)cc3)[nH]c3c(F)cc(F)cc32)C1)N1CCC(O)(CO)CC1` [Compound 87], the IC50 is more than 1000 nM.
For `O=C([C@H]1C[C@H](c2c(-c3ccc(F)cc3)[nH]c3c(F)cc(F)cc32)C1)N1C[C@@H](CO)OCC12CC2` [Compound 57] the value was more than 1000 nM; for `NC(=O)[C@@H]1CCCN1C(=O)[C@H]1C[C@H](c2c(-c3ccc(F)cc3)[nH]c3c(F)cc(F)cc32)C1` [Compound 88], more than 1000 nM; for `O=C1NCC[C@H]1NC(=O)[C@H]1C[C@H](c2c(-c3ccc(F)cc3)[nH]c3c(F)cc(F)cc32)C1` [Compound 45], less than 250 nM.
For `CC(C)N1CCN(C(=O)[C@H]2C[C@H](c3c(-c4ccc(F)cc4)[nH]c4c(F)cc(F)cc43)C2)CC1=O` [Compound 63] the value was more than 1000 nM.
Consider `CCNC(=O)[C@@H]1CCCN1C(=O)[C@H]1C[C@H](c2c(-c3ccc(F)cc3)[nH]c3c(F)cc(F)cc32)C1` [Compound 64], for which the IC50 was more than 1000 nM.
As for `CN(CC(N)=O)C(=O)[C@H]1C[C@H](c2c(-c3ccc(F)cc3)[nH]c3c(F)cc(F)cc32)C1` [Compound 51], the figure is 250 to 1000 nM; as for `CN(CC(C)(C)O)C(=O)[C@H]1C[C@H](c2c(-c3ccc(F)cc3)[nH]c3c(F)cc(F)cc32)C1` [Compound 93], more than 1000 nM; as for `O=C(NC1(CCO)CC1)[C@H]1C[C@H](c2c(-c3ccc(F)cc3)[nH]c3c(F)cc(F)cc32)C1` [Compound 59], 250 to 1000 nM.
